Consider 14 compounds from ChEMBL document CHEMBL5036334, “Balanced dual acting compounds targeting aromatase and estrogen receptor α as an emerging therapeutic opportunity to counteract estrogen responsive breast cancer” (Eur J Med Chem, 2021).

pIC50: −log10 of the molar value. Some results are limits rather than exact numbers.

One experiment has as its target T1, Aromatase (Homo sapiens, UniProt P11511).
T1 sequence (P11511 whole entry): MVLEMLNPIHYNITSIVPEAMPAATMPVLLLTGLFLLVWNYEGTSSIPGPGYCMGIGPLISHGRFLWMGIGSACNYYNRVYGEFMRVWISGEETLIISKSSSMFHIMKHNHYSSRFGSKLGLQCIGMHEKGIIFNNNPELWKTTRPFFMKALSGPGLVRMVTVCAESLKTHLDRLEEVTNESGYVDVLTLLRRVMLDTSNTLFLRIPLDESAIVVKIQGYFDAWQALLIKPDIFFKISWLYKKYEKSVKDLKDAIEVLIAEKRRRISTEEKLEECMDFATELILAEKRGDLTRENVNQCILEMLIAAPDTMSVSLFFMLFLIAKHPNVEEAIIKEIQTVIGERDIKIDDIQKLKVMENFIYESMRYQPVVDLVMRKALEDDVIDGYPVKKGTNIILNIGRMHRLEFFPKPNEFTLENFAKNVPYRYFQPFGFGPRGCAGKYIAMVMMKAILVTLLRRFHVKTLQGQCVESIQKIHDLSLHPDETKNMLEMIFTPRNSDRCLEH
Briefly: Inhibition of human aromatase assessed as reduction in fluorescence intensity preincubated with NADPH regenerating system for 10 mins followed by substrate addition incubated for 60 mins by fluorescence based microplate reader analysis.

A further experiment has as its target T2, Estrogen receptor (Homo sapiens, UniProt P03372).
T2 sequence (P03372 whole entry): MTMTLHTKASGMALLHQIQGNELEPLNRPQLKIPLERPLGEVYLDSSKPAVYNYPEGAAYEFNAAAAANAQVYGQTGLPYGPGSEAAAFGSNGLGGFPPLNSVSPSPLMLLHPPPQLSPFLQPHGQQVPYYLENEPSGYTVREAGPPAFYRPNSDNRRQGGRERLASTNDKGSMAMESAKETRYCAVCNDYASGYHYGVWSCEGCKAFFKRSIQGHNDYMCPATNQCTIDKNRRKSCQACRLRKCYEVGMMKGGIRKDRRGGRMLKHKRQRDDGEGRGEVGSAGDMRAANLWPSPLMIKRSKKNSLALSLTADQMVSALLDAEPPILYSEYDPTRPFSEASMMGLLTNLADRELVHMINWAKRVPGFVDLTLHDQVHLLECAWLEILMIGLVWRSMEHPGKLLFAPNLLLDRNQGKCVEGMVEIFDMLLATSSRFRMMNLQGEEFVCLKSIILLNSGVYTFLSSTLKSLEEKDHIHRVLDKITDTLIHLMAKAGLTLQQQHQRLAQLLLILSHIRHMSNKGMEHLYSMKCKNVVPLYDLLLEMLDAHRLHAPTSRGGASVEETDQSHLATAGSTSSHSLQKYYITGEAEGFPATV
The experiment can be described thus: Binding affinity to human ERalpha measured after 2 hrs by fluorescence polarization plate reader.

For the next experiment, the system named is MCF-10A. Briefly: Antiproliferative activity against human MCF-10A cells assessed as reduction in cell viability after 72 hrs by cell counter method. The class given is functional, cell-based.
A further experiment relates to MCF7. Briefly: Antiproliferative activity against human MCF7 cells assessed as reduction in cell viability after 72 hrs by cell counter method. Particulars: MCF7, 72 h. The class given is functional, cell-based.

Regarding `CC(Cc1cccnc1)=C(c1ccc(O)cc1)c1ccc(O)cc1`, the negative logarithm of the IC50 (pIC50) is 6.06 on Aromatase, 5.75 on Estrogen receptor, 4.23 in the experiment on MCF-10A and 4.39 in the experiment with MCF7.

For `CCC(Cn1ccnc1)=C(c1ccc(O)cc1)c1ccc(O)cc1`, the pIC50 at Aromatase is 7.46; on Estrogen receptor it was 5.74; in the experiment on MCF-10A, 4.46; with MCF7, 4.61.

With `CCC(CCc1c[nH]cn1)=C(c1ccc(O)cc1)c1ccc(O)cc1`, the pIC50 is 7.28 at Aromatase, 6.71 on Estrogen receptor, less than 4.00 in the experiment with MCF-10A and 4.43 with MCF7.

Regarding `CCC(=C(c1ccc(O)cc1)c1ccc(O)cc1)c1c[nH]cn1`, the negative logarithm of the IC50 (pIC50) on Aromatase was 6.02; at Estrogen receptor, 5.97; in the experiment with MCF-10A it was less than 4.00; in the experiment on MCF7 it was 4.22.

In the case of `CC(=C(c1ccc(O)cc1)c1ccc(O)cc1)c1cccnc1`, the pIC50 at Aromatase is less than 5.00; on Estrogen receptor it was 7.12; in the experiment on MCF-10A, 4.38; in the experiment on MCF7, 5.28.

Consider `CCC(Cc1cccnc1)=C(c1ccc(O)cc1)c1ccc(O)cc1`, for which the pIC50 at Aromatase is 7.64; at Estrogen receptor it was 7.72; with MCF-10A it was less than 4.00; with MCF7 it was 4.56.

Regarding `CC(CCc1c[nH]cn1)=C(c1ccc(O)cc1)c1ccc(O)cc1`, the negative logarithm of the IC50 (pIC50) on Aromatase was 7.20; at Estrogen receptor, 5.76; in the experiment on MCF-10A it was 4.30; in the experiment with MCF7 it was 4.40.

Turning to `CCC(=C(c1ccc(O)cc1)c1ccc(O)cc1)c1cccnc1`, the negative-log IC50 (pIC50) at Aromatase was 5.90; at Estrogen receptor it was less than 5.00; in the experiment with MCF-10A it was 4.77; with MCF7 it was 5.00.

On to `CC(=C(c1ccc(O)cc1)c1ccc(O)cc1)c1c[nH]cn1`, for which the pIC50 on Aromatase is 6.22; on Estrogen receptor, 6.65; in the experiment on MCF-10A, less than 4.00; in the experiment with MCF7, 4.24.

For the compound `CC(Cn1ccnc1)=C(c1ccc(O)cc1)c1ccc(O)cc1`, the negative-log IC50 (pIC50) on Aromatase is 6.00; at Estrogen receptor, 5.31; in the experiment on MCF-10A, 4.28; with MCF7, 4.43.

In the case of `CCC(CCc1cccnc1)=C(c1ccc(O)cc1)c1ccc(O)cc1`, the negative logarithm of the IC50 (pIC50) at Aromatase was 6.05; on Estrogen receptor, 7.48; in the experiment on MCF-10A, 4.70; in the experiment with MCF7, 4.38.

Regarding `CC(CCc1cccnc1)=C(c1ccc(O)cc1)c1ccc(O)cc1`, the negative-log IC50 (pIC50) at Aromatase is 5.49; on Estrogen receptor, 6.50; in the experiment on MCF-10A, less than 4.00; in the experiment with MCF7, less than 4.00.

For the compound `CC/C(=C(\c1ccc(O)cc1)c1ccc(OCCNC)cc1)c1ccccc1` [ENDOXIFEN], the pIC50 on Aromatase was less than 5.00; at Estrogen receptor, 7.52; in the experiment on MCF-10A, less than 5.00; in the experiment on MCF7, 7.00.

Turning to `N#Cc1ccc(C(c2ccc(C#N)cc2)n2cncn2)cc1` [LETROZOLE], the pIC50 is less than 5.00 at Estrogen receptor, less than 5.00 in the experiment with MCF-10A and 5.39 with MCF7.

One may read the pIC50 as the negative decadic logarithm of the IC50, by convention in mol/L.
